{
  "source": "paper PMC2095803",
  "about": "(Nucleic Acids Research, 2007)",
  "key": {"[1]": {"system": "AmpliTaqFS", "conditions": "F667Y mutation in AmpliTaqFS; cited from earlier work"}, "[2]": {"molecular_target": "T1, Bst DNA polymerase (Geobacillus stearothermophilus, UniProt P52026)", "T1 sequence (P52026 289-876 limits assumed)": "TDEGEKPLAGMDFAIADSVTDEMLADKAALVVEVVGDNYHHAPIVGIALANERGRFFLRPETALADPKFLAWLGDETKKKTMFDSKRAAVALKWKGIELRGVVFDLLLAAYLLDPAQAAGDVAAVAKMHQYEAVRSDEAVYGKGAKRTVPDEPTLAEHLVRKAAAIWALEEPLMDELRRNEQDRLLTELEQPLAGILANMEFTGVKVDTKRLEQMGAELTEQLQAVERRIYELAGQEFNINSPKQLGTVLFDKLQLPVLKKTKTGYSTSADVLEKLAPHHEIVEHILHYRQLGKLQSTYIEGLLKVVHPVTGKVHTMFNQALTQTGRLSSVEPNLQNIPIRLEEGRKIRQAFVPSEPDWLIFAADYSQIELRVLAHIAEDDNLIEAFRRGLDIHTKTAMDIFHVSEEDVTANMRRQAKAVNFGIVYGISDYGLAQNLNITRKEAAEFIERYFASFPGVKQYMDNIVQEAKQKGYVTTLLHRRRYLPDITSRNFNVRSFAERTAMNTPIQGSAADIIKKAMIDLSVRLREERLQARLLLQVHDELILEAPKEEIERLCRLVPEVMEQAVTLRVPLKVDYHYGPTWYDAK", "experiment": "PEP termination assay", "assay_type": "biochemical, Bacillus stearothermophilus"}, "[3]": {"molecular_target": "Klenow(exo−) DNA polymerase (Escherichia coli, UniProt P00582, D355A/E357A)", "experiment": "PEP termination assay", "assay_type": "biochemical"}, "[4]": {"molecular_target": "Taq DNA polymerase (Thermus aquaticus, UniProt P19821)", "sequence (P19821 whole entry)": "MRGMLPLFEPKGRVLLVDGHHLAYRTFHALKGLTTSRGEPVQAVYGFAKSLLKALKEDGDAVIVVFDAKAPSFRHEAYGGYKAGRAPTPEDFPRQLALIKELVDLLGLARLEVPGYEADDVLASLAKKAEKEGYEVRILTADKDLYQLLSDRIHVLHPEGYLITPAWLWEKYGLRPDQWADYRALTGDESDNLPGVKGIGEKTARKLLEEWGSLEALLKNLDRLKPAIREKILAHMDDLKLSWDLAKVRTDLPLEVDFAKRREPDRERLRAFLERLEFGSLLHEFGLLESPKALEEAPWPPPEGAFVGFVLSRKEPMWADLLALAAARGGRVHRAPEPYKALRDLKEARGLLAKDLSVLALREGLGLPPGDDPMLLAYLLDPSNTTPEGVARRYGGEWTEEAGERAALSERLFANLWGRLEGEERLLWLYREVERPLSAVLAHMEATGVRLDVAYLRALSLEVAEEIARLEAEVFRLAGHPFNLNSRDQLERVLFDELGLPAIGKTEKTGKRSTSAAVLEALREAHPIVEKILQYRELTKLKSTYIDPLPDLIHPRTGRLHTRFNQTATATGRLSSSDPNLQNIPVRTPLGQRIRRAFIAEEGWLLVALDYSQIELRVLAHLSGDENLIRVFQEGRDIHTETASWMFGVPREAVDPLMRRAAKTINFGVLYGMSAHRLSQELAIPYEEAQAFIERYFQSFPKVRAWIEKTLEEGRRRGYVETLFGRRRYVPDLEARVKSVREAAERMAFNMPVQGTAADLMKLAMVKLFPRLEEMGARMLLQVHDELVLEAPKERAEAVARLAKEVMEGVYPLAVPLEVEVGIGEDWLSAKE", "experiment": "PEP termination assay", "assay_type": "biochemical, Thermus aquaticus YT-1"}, "[5]": {"molecular_target": "T2, Vent(exo−) DNA polymerase (Thermococcus litoralis, UniProt P30317, D141A/E143A)", "T2 sequence (P30317 with tags, fused parts or gaps D141A/E143A)": "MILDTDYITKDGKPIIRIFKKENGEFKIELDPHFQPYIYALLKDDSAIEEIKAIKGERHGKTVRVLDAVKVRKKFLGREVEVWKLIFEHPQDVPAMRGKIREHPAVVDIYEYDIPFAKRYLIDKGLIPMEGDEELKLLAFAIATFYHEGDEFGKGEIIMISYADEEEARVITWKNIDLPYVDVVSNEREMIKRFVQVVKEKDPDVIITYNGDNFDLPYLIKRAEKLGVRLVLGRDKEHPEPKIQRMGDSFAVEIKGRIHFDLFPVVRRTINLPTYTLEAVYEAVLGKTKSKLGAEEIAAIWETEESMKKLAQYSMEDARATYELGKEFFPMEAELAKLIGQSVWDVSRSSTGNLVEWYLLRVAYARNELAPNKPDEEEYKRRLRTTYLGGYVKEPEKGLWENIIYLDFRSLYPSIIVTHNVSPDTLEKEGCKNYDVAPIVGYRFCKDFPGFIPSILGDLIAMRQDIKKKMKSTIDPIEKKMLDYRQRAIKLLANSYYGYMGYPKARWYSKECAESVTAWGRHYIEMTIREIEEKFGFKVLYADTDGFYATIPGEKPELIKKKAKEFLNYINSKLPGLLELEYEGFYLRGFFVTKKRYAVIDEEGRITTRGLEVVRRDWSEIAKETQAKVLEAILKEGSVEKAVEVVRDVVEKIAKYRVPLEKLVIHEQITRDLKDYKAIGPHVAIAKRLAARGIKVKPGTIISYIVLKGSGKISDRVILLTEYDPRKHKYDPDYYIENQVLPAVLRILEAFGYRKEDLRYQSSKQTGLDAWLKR", "experiment": "PEP termination assay", "assay_type": "biochemical"}, "[6]": {"molecular_target": "T3, DeepVent(exo−) DNA polymerase (Pyrococcus sp. GB-D, UniProt Q51334, D141A/E143A)", "T3 sequence (Q51334 with tags, fused parts or gaps D141A/E143A)": "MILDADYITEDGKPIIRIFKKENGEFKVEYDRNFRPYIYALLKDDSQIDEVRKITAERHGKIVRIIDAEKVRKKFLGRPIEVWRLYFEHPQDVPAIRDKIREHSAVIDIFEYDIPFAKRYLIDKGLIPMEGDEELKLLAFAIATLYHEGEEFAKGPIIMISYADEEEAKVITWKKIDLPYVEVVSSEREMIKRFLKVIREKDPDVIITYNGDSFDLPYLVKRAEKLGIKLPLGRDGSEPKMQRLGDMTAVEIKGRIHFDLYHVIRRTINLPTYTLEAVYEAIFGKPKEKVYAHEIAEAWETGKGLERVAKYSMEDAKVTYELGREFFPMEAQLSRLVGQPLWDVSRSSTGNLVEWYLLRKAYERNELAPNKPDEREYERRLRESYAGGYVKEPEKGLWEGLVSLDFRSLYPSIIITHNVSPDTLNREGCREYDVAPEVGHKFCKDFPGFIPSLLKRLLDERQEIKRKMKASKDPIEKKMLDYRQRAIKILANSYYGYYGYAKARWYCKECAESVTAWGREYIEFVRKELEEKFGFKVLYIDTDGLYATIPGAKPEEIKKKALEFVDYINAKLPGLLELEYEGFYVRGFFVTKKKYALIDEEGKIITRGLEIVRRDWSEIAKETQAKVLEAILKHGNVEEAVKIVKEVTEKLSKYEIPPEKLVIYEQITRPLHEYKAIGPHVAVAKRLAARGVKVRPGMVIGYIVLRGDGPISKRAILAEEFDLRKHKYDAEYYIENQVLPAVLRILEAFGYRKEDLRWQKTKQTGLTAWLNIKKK", "experiment": "PEP termination assay", "assay_type": "biochemical, Pyrococcus species GB-D"}, "[7]": {"molecular_target": "T1, Bst DNA polymerase", "experiment": "Oligonucleotide template assay", "assay_type": "biochemical, Bacillus stearothermophilus", "conditions": "Bst; final concentration of 200 nM"}, "[8]": {"molecular_target": "T1, Bst DNA polymerase", "experiment": "Five-base CRT sequencing experiment on solid support", "assay_type": "biochemical, Bacillus stearothermophilus"}, "[9]": {"conditions": "Klenow(exo−), 25× IC50, oligoTemplate-3"}},
  "data": [
    {"compound": "Nc1ncnc2c1ncn2[C@H]1CC[C@@H](COP(=O)(O)OP(=O)(O)OP(=O)(O)O)O1", "note": "[ddATP, 2′,3′-dideoxyadenosine triphosphate, reference compound]", "values": [
      {"measurement": "Ratio ddATP over dATP", "setting": "[1]", "result": 0.59}
    ]},
    {"compound": "O=[N+]([O-])c1ccccc1CNc1ncnc2c1ncn2[C@H]1C[C@H](O)[C@@H](COP(=O)(O)OP(=O)(O)OP(=O)(O)O)O1", "note": "[Compound IIIc, N^6-(2-Nitrobenzyl)-2’-deoxyadenosine-5’-triphosphate]", "values": [
      {"measurement": "IC50", "setting": "[2]", "result": 10, "unit": "nM"},
      {"measurement": "% 1st Base", "setting": "[2]; Bst, 25× IC50, oligoTemplate-3", "result": "99.1 ± 0.3", "unit": "%"},
      {"measurement": "% 2nd Base", "setting": "[2]; Bst, 25× IC50, oligoTemplate-3", "result": "<0.1", "unit": "%"},
      {"measurement": "% Primer", "setting": "[2]; Bst, 25× IC50, oligoTemplate-3", "result": "0.9 ± 0.3", "unit": "%"},
      {"measurement": "Extension / termination of DNA synthesis on 10-thymidine template", "setting": "[2]; Bst, at 25× its IC50 value", "result": "efficiently incorporated and terminated Bst DNA synthesis at the first-base position"},
      {"measurement": "IC50", "setting": "[3]", "result": 4.3, "unit": "nM"},
      {"measurement": "% 1st Base", "setting": "[3]; [9]", "result": "76.1 ± 1.8", "unit": "%"},
      {"measurement": "% 2nd Base", "setting": "[3]; [9]", "result": "6.2 ± 0.5", "unit": "%"},
      {"measurement": "% Primer", "setting": "[3]; [9]", "result": "17.7 ± 2.2", "unit": "%"},
      {"measurement": "IC50", "setting": "[4]", "result": 300, "unit": "nM"},
      {"measurement": "% 1st Base", "setting": "[4]; Taq, 25× IC50, oligoTemplate-3", "result": "98.7 ± 0.4", "unit": "%"},
      {"measurement": "% 2nd Base", "setting": "[4]; Taq, 25× IC50, oligoTemplate-3", "result": "<0.1", "unit": "%"},
      {"measurement": "% Primer", "setting": "[4]; Taq, 25× IC50, oligoTemplate-3", "result": "1.3 ± 0.4", "unit": "%"},
      {"measurement": "IC50", "setting": "[5]", "result": 2.1, "unit": "nM"},
      {"measurement": "IC50", "setting": "[6]", "result": 11, "unit": "nM"},
      {"measurement": "Incorporation / termination of DNA synthesis", "setting": "[7]", "result": "efficient, base-specific termination of DNA synthesis"},
      {"measurement": "Share of total signal derived from the correct +1 product", "setting": "[8]", "result": "≥ 80", "unit": "%"},
      {"measurement": "Estimated signal S", "setting": "[8]; S = (Ceff)^RL, five-base read", "result": 68.4, "unit": "%"},
      {"measurement": "Signal for the correct +1 product (T × C)", "setting": "[8]; at cycle five", "result": 40, "unit": "%"},
      {"measurement": "Incorporation efficiency (I)", "setting": "[8]; first cycle, on a solid support, 250 nM, Bst", "result": 98.6, "unit": "%"},
      {"measurement": "Deprotection efficiency (D)", "setting": "[8]; first cycle, on a solid support, 365 nm light", "result": 94, "unit": "%"},
      {"measurement": "Cycle efficiency (Ceff)", "setting": "[8]; first cycle, product of I and D, on a solid support", "result": 92.7, "unit": "%"}
    ]}
  ]
}
